These results are taken from patent US20240425478A1, “CYCLOPENTYLPYRAZOLE CDK2 INHIBITORS” (Genentech, Inc., priority 2021, published 2024).

Like-named read-outs stand apart in the source and are kept apart here.

Assay [1] addresses T1, Cyclin Dependent Kinase 4/Cyclin D3 (CDK4-cycD3) (Homo sapiens, UniProt P11802).
T1 construct: purchased Carna Biosciences 04-105
Kind of assay: CDK4-cycD3 TR-FRET (LANCE) enzyme assay. The format is biochemical. The following applies: for Ki: Table O, enzymatic assay; for FS CDK4/CDK2: fold selectivity, enzymatic Ki ratio. How it is done: (§1) Cyclin Dependent Kinase 1/Cyclin A2 (CDK1-cycA2), Cyclin Dependent Kinase 2/Cyclin E1 (CDK2-cycE1), Cyclin Dependent Kinase 4/Cyclin D3 (CDK4-cycD3) and Cyclin Dependent Kinase 6/Cyclin D3 (CDK6-cycD3) enzyme assays were carried out as described below.
(iii) CDK4-cycD3 TR-FRET (LANCE®)
(§2) An Echo acoustic dispenser is used to create dose responses of compound dissolved in DMSO into a 384-well microplate. A 5 μL volume of enzyme mix is added to the well, and pre-incubated with compound for 30 minutes. […] Buffer conditions are 50 mM HEPES, pH 7.5, 10 mM MgCl2, 2 mM TCEP, 0.05% BGG and 0.01% Brij 35. The reaction is quenched with 5 μL of EDTA in detection buffer (15 mM [EDTA final]). Finally, a 5 μL TR-FRET detection mix is added to the quenched reaction, which includes Europium labeled anti-phospho-4E-BP1. […] Signal is a ratio of the Acceptor and Donor fluorescence. Inhibition constants are calculated via the Morrison equation.
(In general: Time-resolved FRET reads energy transfer from a long-lived donor to a nearby acceptor.)

In the next assay the test system is SKOV-3 (ATCC HTB-77). Kind of assay: SKOV-3 EdU incorporation cell proliferation assay (CDK4/6-dependent). The format is cell-based. The following applies: for IC50: Homo sapiens, cellular assay, read-out: CDK4/6 SKOV-3 IC50; for FS SKOV-3/OVISE: fold selectivity, cellular IC50 ratio. How it is done: (§3) (i) OVISE and SKOV-3 EdU Incorporation Cell Proliferation Assays
(§4) Ovarian cancer cell proliferation is measured by incorporation of EdU (5-ethynyl-2′-deoxyuridine) into newly synthesized DNA. CDK2-dependent proliferation is determined using OVISE (JCRB1043, CCNE1-amplified) while CDK4/6-dependent effect is determined with SKOV-3 (ATCC HTB-77) which is not CCNE1-amplified.
(§5) Cells are plated in 384-well plates in RPMI medium supplemented with 10% FBS. Compounds are added at desired concentrations with a final DMSO content of 0.5%, and cells incubated at 37° C./5% CO2 for 16 hours. EdU (Life Technologies) is added to a final concentration of 0.5 μM and incubation continued for 8 hours, followed by fixation with 4% paraformaldehyde. […] Images are acquired using Yokogawa CQ1 imaging cytometer with a 10×objective. […] The IC50 for inhibition of cell division is determined by fitting the fraction of EdU-positive cells as a function of compound dose using a 4-parameter logistic model.

Assay [2] concerns OVISE (JCRB1043, CCNE1-amplified). Kind of assay: OVISE EdU incorporation cell proliferation assay (CDK2-dependent). The format is cell-based. To be noted: for IC50: cellular assay, read-out: CDK2 OVISE IC50; for FS SKOV-3/OVISE: fold selectivity. How it is done: as §3, §4, §5
For assay [3], the target named is T2, Cyclin Dependent Kinase 2/Cyclin E1 (CDK2-cycE1) (Homo sapiens, UniProt P24941).
T2 construct: purchased ProQinase 0050-0055-1
Kind of assay: CDK2-cycE1 TR-FRET (LANCE) enzyme assay.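 As to improvement in potency against CDK2 (Ki) over Comparator C: fold lower CDK2 Ki than comparator c (Ki 0.032 µM).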 To be noted: for Ki: enzymatic assay, read-out: CDK2 Ki; for FS CDK1/CDK2 / FS CDK4/CDK2: fold selectivity. The format is biochemical. How it is done: as §1
(ii) CDK2-cycE1 TR-FRET (LANCE®)
as §2, with “anti-phospho-MBP.” for “anti-phospho-4E-BP1.”, “equation. Enzyme source of CDK2-cycE1 is ProQinase, catalog #: 0050-0055-1.” for “equation.”

Assay [4] has as its target T3, Cyclin Dependent Kinase 1/Cyclin A2 (CDK1-cycA2) (Homo sapiens, UniProt P06493).
T3 construct: purchased ProQinase 0134-0054-1
Kind of assay: CDK1-cycA2 TR-FRET (Lance) enzyme assay. To be noted: for Ki: Table O, enzymatic assay; for FS CDK1/CDK2: fold selectivity, enzymatic Ki ratio. The format is biochemical. How it is done: as §1
(1) CDK1-cycA2 TR-FRET (Lance®)
as §2

Setting [5] is: Table O, cellular SKOV-3 IC50 over OVISE IC50.
Setting [6] is: Table O, enzymatic CDK1 Ki over CDK2 Ki.
The mark [7] stands for this setting: Table O, enzymatic CDK4 Ki over CDK2 Ki.

T3 sequence (P06493 whole entry): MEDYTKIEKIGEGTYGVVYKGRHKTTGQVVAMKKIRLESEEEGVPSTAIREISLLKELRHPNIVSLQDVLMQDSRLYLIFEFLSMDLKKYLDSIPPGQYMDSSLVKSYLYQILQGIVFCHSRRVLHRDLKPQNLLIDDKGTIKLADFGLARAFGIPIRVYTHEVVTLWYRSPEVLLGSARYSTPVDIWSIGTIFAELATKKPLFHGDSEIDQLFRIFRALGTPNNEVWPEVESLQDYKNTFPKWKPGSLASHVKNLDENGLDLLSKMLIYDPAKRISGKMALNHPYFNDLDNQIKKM
T3 sequence (P20248 whole entry partner): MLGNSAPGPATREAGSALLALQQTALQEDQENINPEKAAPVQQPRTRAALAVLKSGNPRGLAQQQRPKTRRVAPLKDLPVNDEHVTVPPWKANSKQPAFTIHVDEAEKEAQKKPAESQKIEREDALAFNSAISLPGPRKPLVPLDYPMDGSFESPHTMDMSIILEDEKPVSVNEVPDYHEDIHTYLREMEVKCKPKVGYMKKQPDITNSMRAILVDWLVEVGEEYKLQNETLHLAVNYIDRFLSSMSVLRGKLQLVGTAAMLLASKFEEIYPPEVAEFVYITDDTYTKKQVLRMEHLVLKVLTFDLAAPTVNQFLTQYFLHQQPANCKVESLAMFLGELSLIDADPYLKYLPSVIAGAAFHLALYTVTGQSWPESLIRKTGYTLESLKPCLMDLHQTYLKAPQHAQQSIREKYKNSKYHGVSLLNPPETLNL
T1 sequence (P11802 whole entry): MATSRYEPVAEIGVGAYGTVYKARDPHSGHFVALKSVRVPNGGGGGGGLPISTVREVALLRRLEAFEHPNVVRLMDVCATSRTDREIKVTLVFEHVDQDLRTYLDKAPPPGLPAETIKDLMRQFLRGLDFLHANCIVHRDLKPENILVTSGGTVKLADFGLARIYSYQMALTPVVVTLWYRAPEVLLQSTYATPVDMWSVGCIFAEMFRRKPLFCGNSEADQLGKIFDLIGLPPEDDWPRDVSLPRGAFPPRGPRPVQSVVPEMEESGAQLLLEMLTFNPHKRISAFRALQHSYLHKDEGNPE
T1 sequence (P30281 whole entry partner): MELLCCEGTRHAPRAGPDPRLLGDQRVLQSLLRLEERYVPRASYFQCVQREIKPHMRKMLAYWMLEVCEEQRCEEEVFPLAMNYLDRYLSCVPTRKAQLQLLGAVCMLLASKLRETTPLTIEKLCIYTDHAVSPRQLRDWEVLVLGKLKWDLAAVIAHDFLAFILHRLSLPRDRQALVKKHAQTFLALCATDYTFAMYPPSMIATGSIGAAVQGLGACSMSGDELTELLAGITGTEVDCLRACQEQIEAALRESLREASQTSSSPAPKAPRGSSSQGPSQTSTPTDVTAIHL

As a reminder, the Ki is a dissociation constant, usually derived from enzyme kinetics or from competition with a known ligand. On to `COc1cc(=O)n(C)cc1Nc1cc([C@H]2CC[C@@H](OC(=O)NC34CC(C3)C4)C2)[nH]n1` [Example 10, (1R,3S)-3-(3-((4-methoxy-1-methyl-6-oxo-1,6-dihydropyridin-3-yl)amino)-1H-pyrazol-5-yl)cyclopentyl bicyclo[1.1.1]pentan-1-ylcarbamate], for which the Ki in assay [1] is more than 50000 nM; in assay [3] (Table O), 130 nM; in assay [4], 5100 nM. Further, the IC50 with SKOV-3 (ATCC HTB-77) (SK-OV-3, Table O) was more than 20000 nM; in assay [2] (Table O), 16000 nM. Also, the “FS SKOV-3/OVISE” value in assay [2] (setting [5]) is given as more than 1.3. In addition, the “FS CDK1/CDK2” value in assay [3] (setting [6]) worked out at 39. For the same compound, the “FS CDK4/CDK2” value in assay [3] (setting [7]) is recorded as 385.
Take `Cc1ncccc1Nc1cc([C@H]2CC[C@@H](OC(=O)NC3CC(O)C3)C2)[nH]n1` (stereo partly drawn) [Example 7D, (1R,3S)-3-(3-((2-methylpyridin-3-yl)amino)-1H-pyrazol-5-yl)cyclopentyl ((1s,3s)-3-hydroxycyclobutyl)carbamate]: the results for the Ki in assay [1], in assay [3] (Table O) and in assay [4] were 1200 nM, 23 nM and 370 nM, respectively. In addition, the IC50 was more than 20000 nM in the assay on SKOV-3 (ATCC HTB-77) (SK-OV-3, Table O) and 1600 nM in assay [2] (Table O). Further, the “FS SKOV-3/OVISE” value in assay [2] (setting [5]) is more than 13. The “FS CDK1/CDK2” value in assay [3] (setting [6]) was 16. Moreover, the “FS CDK4/CDK2” value in assay [3] (setting [7]) is given as 52.
Take `COCCn1nc(Nc2cc([C@H]3CC[C@@H](OC(=O)NC(C)C)C3)[nH]n2)ccc1=O` [Example 2II, (1R,3S)-3-(3-((1-(2-methoxyethyl)-6-oxo-1,6-dihydropyridazin-3-y1)amino)-1H-pyrazol-5-y1)cyclopentyl isopropylcarbamate]: the Ki in assay [1] amounted to 950 nM; in assay [3] (Table O) it was 9.6 nM; in assay [4], 110 nM. The IC50 was more than 20000 nM in the assay with SKOV-3 (ATCC HTB-77) (SK-OV-3, Table O) and 2600 nM in assay [2] (Table O). Moreover, in assay [2] (setting [5]), the “FS SKOV-3/OVISE” value is reported as more than 7.7. Also, in assay [3] (setting [6]), the “FS CDK1/CDK2” value was 11. Moreover, the “FS CDK4/CDK2” value in assay [3] (setting [7]) was 99.
As to `Cc1cc(=O)n(C)nc1Nc1cc([C@H]2CC[C@@H](OC(=O)NC(C)(C)C)C2)[nH]n1` [Example 4C, (1R,3S)-3-(3-((1,4-dimethyl-6-oxo-1,6-dihydropyridazin-3-yl)amino)-1H-pyrazol-5-yl)cyclopentyl tert-butylcarbamate], the inhibition constant Ki in assay [1] came out at 580 nM; in assay [3] (Table O), 2.1 nM; in assay [3] (Table R), 2.1 nM; in assay [3] (Table S), 2.1 nM; in assay [4], 65 nM. Also, the “FS CDK4/CDK2 increased over Comparator D, (+) sign” value in assay [1] (Table R) is listed as “(+)”. For the same compound, the “FS CDK4/CDK2” value in assay [1] (Table R), in assay [1] (Table S) and in assay [3] (setting [7]) was 280 in each case. For the same compound, the “FS CDK4/CDK2 increased over Comparator E, (+) sign” value in assay [1] (Table S) is recorded as “(+)”. Further, the IC50 is 19000 nM with SKOV-3 (ATCC HTB-77) (SK-OV-3, Table O) and 600 nM in assay [2] (Table O). The “selectivity for CDK2 over CDK4 compared with Comparator E” value with SKOV-3 (ATCC HTB-77) (SKOV-3/OVISE fold-selectivity cellular assay data) is “increase in selectivity for CDK2 over CDK4”. The “FS SKOV-3/OVISE increased over Comparator D, (+) sign” value in the assay with SKOV-3 (ATCC HTB-77) (Table R) is listed as “(+)”. Further, the “FS SKOV-3/OVISE” value (in the assay on SKOV-3 (ATCC HTB-77) (Table R); in the assay on SKOV-3 (ATCC HTB-77) (Table S); in assay [2] (setting [5])) was 32 in each case. Moreover, the “FS SKOV-3/OVISE increased over Comparator E, (+) sign” value in the assay with SKOV-3 (ATCC HTB-77) (Table S) is listed as “(+)”. For the same compound, in assay [2] (Table R, in brackets after OVISE IC50), the “CDK2 OVISE IC50 fold change in potency versus Comparator D” value is on record as 6 fold. Besides, in assay [2] (Table S, in brackets after OVISE IC50), the “CDK2 OVISE IC50 fold change in potency versus Comparator E” value came to 0.3 fold. Besides, the “FS CDK1/CDK2” value in assay [3] (setting [6]), in assay [4] (Table R) and in assay [4] (Table S) was 31 in each case. Moreover, in assay [3] (Table R, in brackets after CDK2 Ki), the “CDK2 Ki fold change in potency versus Comparator D” value turned out to be 1.3 fold. The “CDK2 Ki fold change in potency versus Comparator E” value in assay [3] (Table S, in brackets after CDK2 Ki) worked out at 0.3 fold. Further, the “FS CDK1/CDK2 increased over Comparator D, (+) sign” value in assay [4] (Table R) is recorded as “(+)”.
In the case of `Cc1ncc(Nc2cc([C@H]3CC[C@@H](OC(=O)NC(C)C)C3)[nH]n2)c(C)n1` [Example 2W, (1R,3S)-3-(3-((2,4-dimethylpyrimidin-5-yl)amino)-1H-pyrazol-5-y1)cyclopentyl isopropylcarbamate], the Ki in assay [1] is 3100 nM; in assay [3] (Table O), 42 nM; in assay [3] (Table Q) it was 42 nM; in assay [4], 1100 nM. For the same compound, the IC50 was more than 20000 nM in the assay on SKOV-3 (ATCC HTB-77) (SK-OV-3, Table O); more than 20000 nM in the assay on SKOV-3 (ATCC HTB-77) (SK-OV-3, Table Q); 2700 nM in assay [2] (Table O). For the same compound, the “FS SKOV-3/OVISE” value was more than 7.4 in assay [2] (setting [5]) and more than 7.4 in assay [2] (Table Q, cellular). Moreover, the “increased fold-selectivity SKOV-3/OVISE over Comparator C” value in assay [2] (Table Q, (+) sign after FS SKOV-3/OVISE) was “(+) (The (+) sign in Table Q signifies desirable increased fold-selectivity of the exemplary compounds over Comparator C)”. In addition, the “improvement in CDK2 OVISE cell potency over Comparator C” value in assay [2] (Table Q, in brackets after OVISE IC50, Comparator C 5.5 μM) was 2 fold. Moreover, the “improvement in potency against CDK2 (Ki) over Comparator C” value in assay [3] was 0.8 fold. Moreover, the “FS CDK1/CDK2” value amounted to 26 in assay [3] (setting [6]) and 26 in assay [3] (Table Q, enzymatic). The “FS CDK4/CDK2” value in assay [3] (setting [7]) turned out to be 74; in assay [3] (Table Q, enzymatic) it was 74. In addition, the “increased fold-selectivity CDK4/CDK2 over Comparator C” value in assay [3] (Table Q, (+) sign after FS CDK4/CDK2) is reported as “(+) (The (+) sign in Table Q signifies desirable increased fold-selectivity of the exemplary compounds over Comparator C)”.
`Cc1ncccc1Nc1cc([C@H]2CC[C@@H](OC(=O)N[C@H]3CCN(C)C3)C2)[nH]n1` [Example 7C, (1R,3S)-3-(3-((2-methylpyridin-3-yl)amino)-1H-pyrazol-5-yl)cyclopentyl ((S)-1-methylpyrrolidin-3-yl)carbamate]: the inhibition constant (Ki) in assay [1] turned out to be 4200 nM; in assay [3] (Table O), 260 nM; in assay [4] it was 3500 nM. Also, the IC50 in the assay with SKOV-3 (ATCC HTB-77) (SK-OV-3, Table O) was more than 20000 nM; in assay [2] (Table O), 8000 nM. Moreover, in assay [2] (setting [5]), the “FS SKOV-3/OVISE” value is recorded as more than 2.5. Further, in assay [3] (setting [6]), the “FS CDK1/CDK2” value came out at 13. Moreover, the “FS CDK4/CDK2” value in assay [3] (setting [7]) came to 16.
Consider `Cn1c(Nc2cc([C@H]3CC[C@@H](OC(=O)NC(C)(C)C)C3)[nH]n2)ccnc1=O` [Example 8A, (1R,3S)-3-(3-((3-methyl-2-oxo-2,3-dihydropyrimidin-4-yl)amino)-1H-pyrazol-5-yl)cyclopentyl tert-butylcarbamate], for which the IC50 is more than 20000 nM in the assay with SKOV-3 (ATCC HTB-77) (SK-OV-3, Table O) and 20000 nM in assay [2] (Table O). Besides, in assay [2] (setting [5]), the “FS SKOV-3/OVISE” value was more than 1. The inhibition constant (Ki) in assay [3] (Table O) was found to be 270 nM; in assay [4], 11000 nM. Besides, in assay [3] (setting [6]), the “FS CDK1/CDK2” value turned out to be 41. The “FS CDK4/CDK2” value in assay [3] (setting [7]) stood at 185.
`Cn1c(Nc2cc([C@H]3CC[C@@H](OC(=O)NC45CC(C4)C5)C3)[nH]n2)nccc1=O` [Example 9A, (1R,3S)-3-(3-((1-methyl-6-oxo-1,6-dihydropyrimidin-2-yl)amino)-1H-pyrazol-5-yl)cyclopentyl bicyclo[1.1.1]pentan-1-ylcarbamate] displayed an inhibition constant (Ki) in assay [1] of 150 nM. In addition, the IC50 in the assay with SKOV-3 (ATCC HTB-77) (SK-OV-3, Table O) was found to be 3000 nM.
